Data on 3 compounds can be found in patent publication US20080039522A1, “Composition Containing a Complex Comprising a Metal Ion and a Carboxylate Ligand Having Anti-Inflammatory Activity” (Medical Therapies Limited, priority 2004, published 2008).

The subject of series [1] is Sprague-Dawley rats. Nature of the series: Small intestinal toxicity of topical creams. The note with it: rat, in vivo. As to the method: In Vivo Small Intestinal Toxicity.
All rat experiments were performed as outlined in Example 7, except for the following changes.
In Vivo Anti-inflammatory Activity and Gastric Toxicity. For topical administration, rats were treated with test compositions containing [Cu2(Indo)4(OH2)2] (“CuIndo”), [Zn(Indo)2(OH2)2] (“ZnIndo”), IndoH, or an equivalent Indo and Cu dose of a physical mixture of [Cu2(OAc)4(OH2)2] and IndoH thoroughly mixed in an emulsifying cream (see below). An amount of 0.2 g of the composition was applied to the right hind paw of each animal and gently massaged in for 1 minute at three-hourly intervals. Inflammation was induced at the final topical application with an injection of carrageenan (0.1 mL, 1% w/v in isotonic saline) into the plantar region of the hind paw.

Series [2] concerns Sprague-Dawley rats. The series is described as follows: Gastric toxicity after subcutaneous or intramuscular injection. The note with it: rat, in vivo, 4 h. On the procedure: (§1) In Vivo Anti-inflammatory Activity and Gastric Toxicity. Groups of four rats were used for all studies. All doses were calculated as equivalent concentrations of Indo. […] For subcutaneous and intramuscular administration, rats were injected with 125-200 μL volumes of the test compositions (IndoH or [Cu2(Indo)4(OH2)2] in MCT oil). The control cohort was injected with equivalent volumes of neat MCT. Subcutaneous injections were made in the lower dorsal surface and intramuscular injections were made in the right hind thigh muscle. Inflammation was induced 1 h after dosing by injection of the formulation by an injection of carrageenan (0.1 mL, 1% w/v in isotonic saline) into the plantar region of the hind paw.
(§2) Paw volume was measured prior to dosing and at 3 h after carrageenan injection by immersing the left hind paw (to the lateral malleus) into a vessel filled with water as described in Example 5. Immediately after paw volume measurements, 24 h-fasted animals were euthanised and the stomach was excised and opened by incision along the greater curvature.

For series [3], the system named is Sprague-Dawley rats. Nature of the series: Small intestine ulceration after oral administration. Type of series: in vivo, rat. Particulars: rats fed, oral gavage, 24 h after dosing, IndoH 10 mg kg^−1, complexes 11 mg kg^−1, mean ± sem. On the procedure: The rats were orally administered (non-anaesthetized) the Test Samples or Test Compositions via oral gavage. The controls were dosed with CMC (2%) solution.
(§3) The total volume of the MCT or carbopol paste compositions administered per dose in the assessment of gastrointestinal ulceration was no more than 0.5 g.

Series [4] relates to Sprague-Dawley rats. Nature of the series: Observation of the site of the subcutaneous injection. Format: in vivo, rat. Particulars: rat, in vivo, sc. As to the method:
as §1

Series [5] deals with Sprague-Dawley rats. The series is described as follows: Anti-inflammatory activity (rat paw oedema) after subcutaneous or intramuscular injection. Type of series: in vivo. As to the method: as §1, §2
The test system of series [6] is Sprague-Dawley rats. Nature of the series: Inhibition of carrageenan-induced paw edema, oral administration. Type of series: in vivo, rat. The note with it: for percent inhibition in rat hind-paw diameter change, 3-hr / percent inhibition in rat hind-paw diameter change, 5-hr: oral, IndoH 10 mg kg^−1, complex 11 mg kg^−1, mean(sem); for percent inhibition in rat hind-paw diameter change, 3-hr: 3 h post carrageenan; for percent inhibition in rat hind-paw diameter change, 5-hr: 5 h post carrageenan. On the procedure:
Inhibition of Carrageenan-Induced Paw Edema: Rats were orally administered (non-anaesthetized) the Test Samples or Test Compositions via oral gavage. The control cohort was dosed solely with CMC (2%) solution. […] Exp. Ther. 1965, 150, 165-171). The thickness of the paw was measured at the ventral dorsal footpad using digital calipers prior to dosing and at 3 and 5 h after carrageenan injection. The change in the measured parameter (ΔP) for thickness of paw (Δmm) at n=3- and 5-hours after carrageenan injection is given by: ΔP=Pt=n-Pt=0 (I) The percent inhibition (% inhibition) at 3- or 5-hours in the measured parameter (P) due to the treatment is given as the difference between the % increase in the value of P in the control group and the treatment group at n=3- or 5-hours, with the % increase in the value of P given by: […]
Background: The carrageenan paw model is a standard test of acute inflammation.

Series [7] relates to Sprague-Dawley rats. The series is described as follows: Anti-inflammatory activity (rat paw oedema) of topical creams. Type of series: in vivo. Particulars: topical emulsifying cream. As to the method:
All rat experiments were performed as outlined in Example 7, except for the following changes. In Vivo Anti-inflammatory Activity and Gastric Toxicity. For topical administration, rats were treated with test compositions containing [Cu2(Indo)4(OH2)2] (“CuIndo”), [Zn(Indo)2(OH2)2] (“ZnIndo”), IndoH, or an equivalent Indo and Cu dose of a physical mixture of [Cu2(OAc)4(OH2)2] and IndoH thoroughly mixed in an emulsifying cream (see below). An amount of 0.2 g of the composition was applied to the right hind paw of each animal and gently massaged in for 1 minute at three-hourly intervals. Inflammation was induced at the final topical application with an injection of carrageenan (0.1 mL, 1% w/v in isotonic saline) into the plantar region of the hind paw. The composition for topical application was a composition comprising 0.5-2% w/w of Indo delivered as [Cu2(Indo)4(OH2)2] (“CuIndo”), [Zn(Indo)2(OH2)2] (“ZuIndo”), IndoH or an equivalent Indo and Cu dose of a physical mixture of [Cu2(OAc)4(OH2)2] and IndoH in an emulsifying cream, the emulsifying cream consisting of: […]

The subject of series [8] is Sprague-Dawley rats. The series is described as follows: Acute gastric ulceration after oral administration. Format: in vivo, rat. Particulars: for gastric ulceration: 10 mg kg^−1 dose of Indo. On the procedure:
Gastrointestinal Ulceration: To assess gastric damage, rats (n=4 per group) were fasted overnight with free access to water prior to the oral administration (non-anaesthetized) of the Test Samples or Test Compositions via oral gavage. The controls were dosed with CMC (2%) solution. Three hours after dosing, the rats were euthanised and the stomach was excised and opened by incision along the greater curvature. The stomach was rinsed, submerged in 10% formaldehyde for 1 h and examined to determine the extent of macroscopic gastric damage.
as §3
In order to illustrate the adverse effects of decomposition of the copper complex in the formulation, the gastric toxicity of IndoH, Cu-acetate, a physical mixture of Cu-acetate and IndoH and [Cu2(Indo)4(DMF)2] were tested at equivalent doses of Indo (10 mg kg^−1) and/or Cu in the MCT paste or a 2% (w/v) aqueous solution of carboxymethylcellulose (CMC). The MCT paste formulations were prepared as described in Example 3 but using IndoH, Cu-acetate, a physical mixture of Cu-acetate and IndoH, or [Cu2(Indo)4(DMF)2] instead of [Cu2(Indo)4(OH2)2]. The gastric toxicity was tested as described above. The results of these experiments are illustrated in FIG. 3.
In further experiments designed to test the toxicity of solutions of the Cu complex, the [Cu2(Indo)4(DMF)2] complex was dissolved in DMF and gastric toxicities were assessed. […] Similar results would be expected using other complexes, including [Cu2(Indo)4(OH2)2], in a non-colloidal solution.

Where “and” joins values, the source holds several entries; their conditions need not be identical. Equal values may be shown once.

In general, ED50 refers to the dose that gives a 50% effect, or the effect in half of the subjects. Low readings indicate an effect at a small dose, high ones a need for a large dose. For the compound `COc1ccc2c(c1)c(CC(=O)O)c(C)n2C(=O)c1ccc(Cl)cc1` [IndoH, 1-(4-chlorobenzoyl)-5-methoxy-2-methyl-1H-indole-3-acetic acid], the intestinal bleeding result with Sprague-Dawley rats [1] is listed as “^bOvert intestinal bleeding”. Moreover, the “Gastric ulcers (mm^2)” value in the series with Sprague-Dawley rats [2] (5 mg/kg) is reported as 1, 0, 1, 2 mm^2; in the series with Sprague-Dawley rats [2] (10 mg/kg) it was 12, 3, 8, 20 mm^2. The “Small intestine ulceration (mm^2)” value with Sprague-Dawley rats [3] (listed as Sample I) was found to be 177.0±4.4 mm^2. Further, the “adverse effect at the site of the injection” value in the series with Sprague-Dawley rats [4] is reported as “None of the rats exhibited soreness, swelling, redness or any other adverse effect”. The Percent inhibition with Sprague-Dawley rats [5] (intramuscular, fasting rats, 5 mg/kg equivalent dose of Indo) is 38.7%; in the series with Sprague-Dawley rats [5] (intramuscular, fasting rats, 10 mg/kg equivalent dose of Indo), 49.4%; in the series with Sprague-Dawley rats [5] (subcutaneous, 7.5 mg/kg of Indo, non-fasting) it was 34%. The ED50 worked out at 2.8 ± 1.7 mg/kg with Sprague-Dawley rats [6] (delivered in CMC) and 1 mg/kg with Sprague-Dawley rats [6] (delivered in MCT paste). The “percent inhibition in rat hind-paw diameter change, 3-hr” value in the series with Sprague-Dawley rats [6] is listed as 21(8) %; in the series on Sprague-Dawley rats [6] (listed as Indomethacin), 21(8)%. Moreover, the figures for the “percent inhibition in rat hind-paw diameter change, 5-hr” value in the series on Sprague-Dawley rats [6] and in the series on Sprague-Dawley rats [6] (listed as Indomethacin) were 25(6) % and 25(6)%, respectively. For the same compound, the “Efficacy (% inhib)” value with Sprague-Dawley rats [7] (conc. 0.5 % equiv of Indo) is reported as 18.6 % inhib; in the series with Sprague-Dawley rats [7] (conc. 0.75 % equiv of Indo), 60.8 % inhib; in the series with Sprague-Dawley rats [7] (conc. 1 % equiv of Indo) it was 35 % inhib; in the series with Sprague-Dawley rats [7] (conc. 2 % equiv of Indo) it was 42 % inhib.
In the case of `COc1ccc2c(c1)c(CC(=O)[O-])c(C)n2C(=O)c1ccc(Cl)cc1.COc1ccc2c(c1)c(CC(=O)[O-])c(C)n2C(=O)c1ccc(Cl)cc1.O.O.[Zn+2]` [ZnIndo, [Zn(Indo)2(OH2)2]], the “Efficacy (% inhib)” value with Sprague-Dawley rats [7] (conc. 0.5 % equiv of Indo) is 29 % inhib; with Sprague-Dawley rats [7] (conc. 1 % equiv of Indo) it was 41 % inhib.
Take `CN(C)C=O.CN(C)C=O.COc1ccc2c(c1)c(CC(=O)[O-])c(C)n2C(=O)c1ccc(Cl)cc1.COc1ccc2c(c1)c(CC(=O)[O-])c(C)n2C(=O)c1ccc(Cl)cc1.COc1ccc2c(c1)c(CC(=O)[O-])c(C)n2C(=O)c1ccc(Cl)cc1.COc1ccc2c(c1)c(CC(=O)[O-])c(C)n2C(=O)c1ccc(Cl)cc1.[Cu+2].[Cu+2]` [[Cu2(Indo)4(DMF)2], bis(N,N-dimethylformamide)tetrakis-μ-(O,O′-Indo)dicopper(II)]: the gastric ulceration in the series on Sprague-Dawley rats [8] (complex dissolved in DMF alone) is above 200 mm^2; in the series on Sprague-Dawley rats [8] (complex in DMF containing 2% CMC), 100 mm^2. Further, in the series on Sprague-Dawley rats [8] (oral, equivalent doses of Indo (10 mg kg^−1) and/or Cu, FIG. 3), the “gastric damage in 0.5 mL MCT paste compared with 0.5 mL of 2% (w/v) CMC solution” value was “less GI toxicity for the MCT formulation compared to the CMC formulation”. Besides, the “gastric ulcerations compared to the control” value with Sprague-Dawley rats [8] (oral, equivalent doses of Indo (10 mg kg^−1) and/or Cu, [Cu2(Indo)4(DMF)2] in MCT paste, Cu-acetate in CMC solution or MCT paste, FIG. 3) is “no significant gastric ulcerations”. The “Gastric ulceration (mm^2)” value in the series on Sprague-Dawley rats [8] (rats fasted overnight, oral gavage, 3 h after dosing, IndoH 10 mg kg^−1, complexes 11 mg kg^−1, mean ± sem, listed as Sample M) was 49±7 mm^2 and 49.0±6.7 mm^2. Also, the “Small intestine ulceration (mm^2)” value in the series on Sprague-Dawley rats [3] (listed as Sample M) was 8.7±2.9 mm^2.
